# Values quoted from earlier work in patent US20230121528A1, “SALMONELLA-BASED DNA VACCINES IN COMBINATION WITH AN ANTIBIOTIC” (VAXIMM AG, priority 2020, published 2023).
# Tested on: glioblastoma
# Settings: glioblastoma patients
substance,measurement,value
avastin: monoclonal antibody avastin targeting VEGF,survival benefit,"only showed benefits in progression free survival, but not in overall survival"
